From patent US20250221410A1, “SUBSTITUTED 2-C-AZINES AND SALTS THEREOF, AND USE THEREOF AS HERBICIDAL ACTIVE SUBSTANCES” (BAYER AKTIENGESELLSCHAFT, priority 2022, published 2025)

Experiments:
Type in all cases: in vivo
[1] = system: MATIN: Matricaria inodora; experiment: Post-emergence herbicidal efficacy at 1280 g/ha, MATIN; conditions: visual rating about 3 weeks after treatment vs untreated controls
Procedure: Seeds of mono- and dicotyledonous weed plants were placed in plastic pots in sandy loam soil (doubly sown with in each case one species of mono- or dicotyledonous weed plants per pot), covered with soil and cultivated in a greenhouse under controlled growth conditions. 2 to 3 weeks after sowing, the test plants were treated at the one-leaf stage. The compounds of the invention, formulated in the form of wettable powders (WP) or as emulsion concentrates (EC), were applied to the green parts of the plants as aqueous suspension or emulsion with addition of 0.5% additive at a water application rate equivalent to 600 litres per hectare. After the test plants had been kept in the greenhouse under optimum growth conditions for about 3 weeks, the activity of the preparations was rated visually in comparison to untreated controls. For example, 100% activity=the plants have died, 0% activity=like control plants. Tables A1 to A12 below show the effects of selected compounds of the general formula (I) according to Table 1 on various harmful plants and at an application rate corresponding to 1280 g/ha, which were obtained by the trial procedure specified above.

[2] = system: KCHSC: Kochia scoparia; experiment: Pre-emergence herbicide efficacy at 80 g/ha, KCHSC; conditions: scored visually after about 3 weeks
From the text: (§1) Seeds of monocotyledonous and dicotyledonous weed plants and crop plants were placed in plastic or organic planting pots and covered with soil. The compounds of the invention, formulated in the form of wettable powders (WP) or as emulsion concentrates (EC), were then applied to the surface of the covering soil as aqueous suspension or emulsion with addition of 0.5% additive at a water application rate equivalent to 600 l/ha. After the treatment, the pots were placed in a greenhouse and kept under good growth conditions for the test plants. After about 3 weeks, the efficacy of the preparations was scored visually in comparison with untreated controls as percentages. For example, 100% activity=the plants have died, 0% activity=like control plants. Tables D1 to D12 below show the effects of selected compounds of the general formula (I) according to Table 1 on various harmful plants and an application rate corresponding to 80 g/ha, which were obtained by the experimental procedure mentioned above.

[3] = system: ECHCG: Echinochloa crus-galli; experiment: Post-emergence herbicidal efficacy at 1280 g/ha, ECHCG; conditions: rated visually after about 3 weeks vs untreated controls, 100% = plants have died, 0% = like control plants
Method in brief: (§2)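 Weeds grown in sandy loam in the greenhouse were sprayed at the one-leaf stage, 2 to 3 weeks after sowing, with WP or EC formulations in water plus 0.5% additive at 600 L/ha. Damage was scored visually about 3 weeks later against untreated controls (0% = like control, 100% = plants dead).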

[4] = system: ECHCG: Echinochloa crus-galli; experiment: Pre-emergence herbicide efficacy at 1280 g/ha, ECHCG; conditions: visual scoring after about 3 weeks vs untreated controls
Method in brief: (§3)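 Pre-emergence pot test in sandy loam: WP or EC formulations sprayed onto covering soil after sowing, as aqueous suspension/emulsion with 0.5% additive at 600 L/ha water. Plants grown in greenhouse; after about 3 weeks, efficacy scored visually as % versus untreated controls (100% = dead, 0% = like control).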

[5] = system: AMARE: Amaranthus retroflexus; experiment: Pre-emergence herbicide efficacy at 1280 g/ha, AMARE; conditions: visual scoring after about 3 weeks vs untreated controls
Method in brief: as §3

[6] = system: DIGSA: Digitaria sanguinalis; experiment: Pre-emergence herbicide efficacy at 1280 g/ha, DIGSA; conditions: visual scoring after about 3 weeks vs untreated controls
Method in brief: as §3

[7] = system: VIOTR: Viola tricolor; experiment: Pre-emergence herbicide efficacy at 80 g/ha, VIOTR; conditions: scored visually after about 3 weeks
From the text: as §1

[8] = system: VERPE: Veronica persica; experiment: Pre-emergence herbicide efficacy at 80 g/ha, VERPE; conditions: scored visually after about 3 weeks
Method in brief: (§4)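 Seeds sown in pots and covered with soil received WP or EC formulations sprayed onto the soil surface at 80 g/ha, 600 l/ha water, with 0.5% additive. After about 3 weeks in greenhouse, efficacy was visually scored as percent versus untreated controls (100% = plants dead, 0% = like control).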

[9] = system: VERPE: Veronica persica; experiment: Post-emergence herbicidal efficacy at 1280 g/ha, VERPE; conditions: visual rating about 3 weeks after treatment vs untreated controls
Method in brief: as §2

[10] = system: DIGSA: Digitaria sanguinalis; experiment: Pre-emergence herbicide efficacy at 80 g/ha, DIGSA; conditions: scored visually after about 3 weeks
From the text: as §1

[11] = system: SETVI: Setaria viridis; experiment: Pre-emergence herbicide efficacy at 80 g/ha, SETVI; conditions: scored visually after about 3 weeks
From the text: as §1

[12] = system: STEME: Stellaria media; experiment: Post-emergence herbicidal efficacy at 1280 g/ha, STEME; conditions: visual rating about 3 weeks after treatment vs untreated controls
Method in brief: as §2

[13] = system: ABUTH: Abutilon theophrasti; experiment: Post-emergence herbicidal efficacy at 1280 g/ha, ABUTH; conditions: rated visually after about 3 weeks vs untreated controls, 100% = plants have died, 0% = like control plants
Method in brief: as §2

[14] = system: AMARE: Amaranthus retroflexus; experiment: Pre-emergence herbicide efficacy at 80 g/ha, AMARE; conditions: scored visually after about 3 weeks
Method in brief: as §4

[15] = system: POAAN: Poa annua; experiment: Pre-emergence herbicide efficacy at 1280 g/ha, POAAN; conditions: visual scoring after about 3 weeks vs untreated controls
Method in brief: as §3

[16] = system: ALOMY: Alopecurus myosuroides; experiment: Pre-emergence herbicide efficacy at 1280 g/ha, ALOMY; conditions: visual scoring after about 3 weeks vs untreated controls
From the text: (§5) Seeds of mono- and dicotyledonous weed plants were placed in plastic pots in sandy loam soil (doubly sown with one species each of mono- or dicotyledonous weed plants per pot) and covered with soil. The compounds of the invention, formulated in the form of wettable powders (WP) or as emulsion concentrates (EC), were then applied to the surface of the covering soil as aqueous suspension or emulsion with addition of 0.5% additive at a water application rate of 600 litres per hectare (converted). After the treatment, the pots were placed in a greenhouse and kept under good growth conditions for the test plants. After about 3 weeks, the efficacy of the preparations was scored visually in comparison with untreated controls as percentages. For example, 100% activity=the plants have died, 0% activity=like control plants. Tables C1 to C12 below show the effects of selected compounds of the general formula (I) according to Table 1 on various harmful plants and at an application rate corresponding to 1280 g/ha, which were obtained by the trial procedure specified above.

[17] = system: VERPE: Veronica persica; experiment: Post-emergence herbicidal efficacy at 80 g/ha, VERPE; conditions: visual rating about 3 weeks after treatment vs untreated controls
Method in brief: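 Greenhouse plants grown in sandy loam were sprayed at the one-leaf stage, 2 to 3 weeks after sowing, with WP or EC formulations in water containing 0.5% additive at 600 l/ha. Visual rating against untreated controls came about 3 weeks later (100% = dead, 0% = as control).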

[18] = system: KCHSC: Kochia scoparia; experiment: Pre-emergence herbicide efficacy at 1280 g/ha, KCHSC; conditions: visual scoring after about 3 weeks vs untreated controls
Method in brief: as §3

[19] = system: SETVI: Setaria viridis; experiment: Post-emergence herbicidal efficacy at 1280 g/ha, SETVI; conditions: visual rating about 3 weeks after treatment vs untreated controls
Method in brief: as §2

[20] = system: KCHSC: Kochia scoparia; experiment: Post-emergence herbicidal efficacy at 1280 g/ha, KCHSC; conditions: visual rating about 3 weeks after treatment vs untreated controls
Method in brief: as §2

[21] = system: LOLRI: Lolium rigidum; experiment: Pre-emergence herbicide efficacy at 1280 g/ha, LOLRI; conditions: visual scoring after about 3 weeks vs untreated controls
From the text: as §5

[22] = system: SETVI: Setaria viridis; experiment: Pre-emergence herbicide efficacy at 1280 g/ha, SETVI; conditions: visual scoring vs untreated controls
Method in brief: as §3

[23] = system: AMARE: Amaranthus retroflexus; experiment: Post-emergence herbicidal efficacy at 1280 g/ha, AMARE; conditions: rated visually after about 3 weeks vs untreated controls, 100% = plants have died, 0% = like control plants
Method in brief: as §2

[24] = system: VERPE: Veronica persica; experiment: Pre-emergence herbicide efficacy at 1280 g/ha, VERPE; conditions: visual scoring vs untreated controls
Method in brief: as §3

[25] = system: ABUTH: Abutilon theophrasti; experiment: Pre-emergence herbicide efficacy at 1280 g/ha, ABUTH; conditions: visual scoring after about 3 weeks vs untreated controls
Method in brief: as §3

[26] = system: ABUTH: Abutilon theophrasti; experiment: Pre-emergence herbicide efficacy at 80 g/ha, ABUTH; conditions: scored visually after about 3 weeks
From the text: as §1

[27] = system: MATIN: Matricaria inodora; experiment: Pre-emergence herbicide efficacy at 1280 g/ha, MATIN; conditions: visual scoring after about 3 weeks vs untreated controls
Method in brief: as §3

[28] = system: MATIN: Matricaria inodora; experiment: Pre-emergence herbicide efficacy at 80 g/ha, MATIN; conditions: scored visually after about 3 weeks
From the text: as §1

[29] = system: VIOTR: Viola tricolor; experiment: Post-emergence herbicidal efficacy at 80 g/ha, VIOTR; conditions: visual rating about 3 weeks after treatment vs untreated controls
Procedure: Seeds of monocotyledonous and dicotyledonous weeds and crop plants were placed in sandy loam in plastic or organic planting pots, covered with soil and cultivated in a greenhouse under controlled growth conditions. 2 to 3 weeks after sowing, the test plants were treated at the one-leaf stage. The compounds of the invention, formulated in the form of wettable powders (WP) or as emulsion concentrates (EC), were then sprayed onto the green parts of the plants as aqueous suspension or emulsion with addition of 0.5% additive at a water application rate of 600 l/ha (converted). After the test plants had been kept in the greenhouse under optimum growth conditions for about 3 weeks, the activity of the preparations was rated visually in comparison to untreated controls. For example, 100% activity=the plants have died, 0% activity=like control plants. Tables B1 to B10 below show the effects of selected compounds of the general formula (I) according to Table 1 on various harmful plants and an application rate corresponding to 80 g/ha, which were obtained by the experimental procedure mentioned above.

[30] = system: STEME: Stellaria media; experiment: Pre-emergence herbicide efficacy at 1280 g/ha, STEME; conditions: visual scoring vs untreated controls
Method in brief: as §3

[31] = system: POAAN: Poa annua; experiment: Post-emergence herbicidal efficacy at 1280 g/ha, POAAN; conditions: visual rating about 3 weeks after treatment vs untreated controls
Method in brief: as §2

## Cc1cccc(Oc2ncc(F)cn2)c1Cc1ncc(Cl)cn1 [Example 1-65]
[1]
  Post-emergence efficacy against MATIN: 100%
[2]
  Pre-emergence efficacy against KCHSC in %: 100%
[3]
  Post-emergence efficacy at 1280 g/ha against ECHCG in %: 90%
[4]
  Pre-emergence efficacy against ECHCG: 100%
[5]
  Pre-emergence efficacy against AMARE: 100%
[6]
  Pre-emergence efficacy against DIGSA: 100%
[7]
  Pre-emergence efficacy against VIOTR in %: 100%
[8]
  Pre-emergence efficacy against VERPE in %: 100%
[9]
  Post-emergence efficacy against VERPE: 100%
[10]
  Pre-emergence efficacy against DIGSA in %: 90%
[11]
  Pre-emergence efficacy against SETVI in %: 90%
[12]
  Post-emergence efficacy against STEME: 100%
[13]
  Post-emergence efficacy at 1280 g/ha against ABUTH in %: 100%
[14]
  Pre-emergence efficacy against AMARE in %: 100%
[15]
  Pre-emergence efficacy against POAAN: 100%
[16]
  Pre-emergence efficacy against ALOMY: 90%
[17]
  Post-emergence efficacy against VERPE: 90%
[18]
  Pre-emergence efficacy against KCHSC: 100%
[19]
  Post-emergence efficacy against SETVI: 90%
[20]
  Post-emergence efficacy against KCHSC: 100%
[21]
  Pre-emergence efficacy against LOLRI: 100%
[22]
  Pre-emergence efficacy against SETVI in %: 100%
[23]
  Post-emergence efficacy at 1280 g/ha against AMARE in %: 100%
[24]
  Pre-emergence efficacy against VERPE in %: 100%
[25]
  Pre-emergence efficacy against ABUTH: 100%
[26]
  Pre-emergence efficacy against ABUTH in %: 90%
[27]
  Pre-emergence efficacy against MATIN: 100%
[28]
  Pre-emergence efficacy against MATIN in %: 100%
[29]
  Post-emergence efficacy against VIOTR: 100%
[30]
  Pre-emergence efficacy against STEME in %: 100%
[31]
  Post-emergence efficacy against POAAN: 100%
